Measurements: patent publication US20120082626A1, “USE OF R-BAMBUTEROL AS INHALED MEDICAMENT AND COMBINATION THERAPIES FOR TREATMENT OF RESPIRATORY DISORDERS” (priority 2009, published 2012)
“Also recorded” adds a separate entry of the source.

Legend:
[1] = test system: histamine evoked asthma in conscious guinea-pigs; assay: Protection against histamine-evoked asthma by inhaled drug in conscious guinea pigs; type: in vivo, guinea pigs (Dunkin-Hartley strain); settings: for Latency: no collapse over 360 sec recorded as 360
Method: (§1) Test methods: Guinea pigs (Dunkin-Hartley strain, 200±30 g) were fasted overnight but given water ad libidum. The animals were restrained individually in a glass chamber and exposed to aerosol histamine generated by a nebulizer from a 0.2% aqueous solution of histamine under constant pressure at dose of 0.5 ml/min for a period of 15 sec. The animal was removed from the chamber, and its behavior was monitored. Assign of collapse and the latency time from exposure to collapse were recorded. Only the animals with latency time less than 120 sec, as an indication of sensitive to histamine, were chosen for later experiments. The animals chosen were allowed to recover completely by resting for 24 hours before experiments. R-bambuterol and racemic bambuterol hydrochloride were dissolved in saline and nublized in a nebulizer.
Study of dose-response: One hours before the exposure to aerosol histamine, animals were randomized into groups (n=8, equal sex), and Nublized R-bambuterol hydrochloride or bambuterol hydrochloride in doses of 63, 126, 252 and 504 μg/kg, and vehicle control were inhaled by the animals via a mouth and nasal mask. The numbers of collapsed animal as a result of asthmatic reaction to aerosol histamine were counted, and the latency times were recorded. Both of these parameters were used as quantitative measurements of the protective effects of the treatments on bronchospasm evoked by aerosol histamine.

[2] = test system: histamine evoked asthma in conscious guinea-pigs; assay: Histamine-evoked asthma in conscious guinea pigs after oral administration; type: in vivo, guinea pigs (Dunkin-Hartley strain); settings: for Latency: no collapse over 360 sec recorded as 360
Method: as §1
Comparison of the anti-asthma effects of R-bambuterol (R-BM) and bambuterol (RS-BM) administered by oral and by inhalation in conscious guinea pigs. Test methods: same as Example 1.
Study of dose-response: Same as Example 1, except the following: four hours before the exposure to aerosol histamine, animals were randomized into groups (n=8, equal male and female), and given R-bambuterol hydrochloride or racemic bambuterol hydrochloride in doses of 1.0, 2.0, 4.0 and 8.0 mg/kg, and vehicle control, orally via a stomach tube.

[3] = test system: histamine evoked asthma in conscious guinea-pigs; assay: Time course of anti-asthma effects after oral administration or inhalation; type: in vivo; settings: for No. of collapsed: n=8
Method: The time course of the anti-asthma effects of R-bambuterol (R-BM) and bambuterol (RS-BM) after administered by oral and by inhalation. Test Methods: same as example 1 except the following:
For orally administration, R-Bambuterol hydrochloride or racemic bambuterol hydrochloride at 4 and 8 mg/kg, and vehicle alone, were administered to the guinea pigs orally via a stomach tube. Exposure of treated animals to aerosol histamine (as above) was done at 1, 4 and 12 hours after R-bambuterol or bambuterol treatment. For each experimental group, there were a total of 8 animals with equal number in sex, and no repeated exposure was made for individual experimental animals.
For inhalation, R-Bambuterol hydrochloride or racemic bambuterol hydrochloride at 0.252 and 0.504 mg/kg, and vehicle alone, were nebulized and administered to the guinea pigs by inhalation. Exposure of drug treated animals to aerosol histamine (as above) was done at 1,4 and 12 hours after drug treatment. For each experimental group, there were a total of 8 animals with equal number in sex, and no repeated exposure was made for individual experimental animals.

[4] = test system: OVA evoked asthma in sensitized guinea pigs; assay: Airway resistance and dynamic pulmonary compliance after inhalation in OVA sensitized guinea pigs; type: in vivo; settings: for protection against asthma attack by antigen (OVA) challenge: pretreatment by inhalation about three minutes before OVA challenge; for change of Raw and Cdyn at resting state after inhalation: before OVA challenge
Method: Sensitization of animals: Ovalbumin (10 μg/ml) was injected into guinea-pigs subcutaneously and coincidentally with an intraperitoneal injection of B. pertussis vaccine. Identical injection of ovalbumin and adjuvant were made day 15 and 21 days later. On day 28th the animals were examined and used for studies.
Test Methods: The sensitized guinea pigs wer anaethetized. A cannula was inserted into the trachea. A plueral cannula was inserted into pleural space through the chest wall. Airway resistance (Raw) and dynamic pulmonary compliance (Cdyn) were measured by using the signals of intraplueral pressure, airflow and tidal volume.
The animals were restreined in closed chamber and nebulized R-bambuterol or S-bambuterol were inhaled at the dose of 126 μg/kg. After three minutes conditioning, the animals were then challenged with nebulized OVA to evoke asthma. Airway resistance (Raw) and dynamic pulmonary compliance (Cdyn) were measured before and after evoking asthma.

[5] = test system: OVA evoked asthma in sensitized guinea-pigs; assay: Relief of antigen-evoked asthma by inhalation after challenge in OVA sensitized guinea-pigs; type: in vivo; settings: nebulized drug inhaled after antigen challenge
Excerpt: In an embodiment of the invention, the ovalbumin (OVA) sensitized guinea-pigs were first challenged with nebulized antigen to evoke asthma, then the animals were allowed to inhale nebulized R-bambuterol or bambuterol. […] In a further embodiment of the invention, the sensitized guinea-pigs were first pretreated with nebulized R-bambuterol or bambuterol by inhalation. After three minutes, the same animals were challenged with nebulized antigen. […] The fast onset of action in the invention can also not be explained by Svenssion's in vitro metabolic study noted above that the dominate product is mono-carbamate bambuterol and litter terbutaline at initial phase., while the major amount of terbutaline will be formed at much later phase. (Svensson et al., 1988).

[6] = cited from earlier work
[7] = test system: asthma evoked by intravenously administrated histamine; settings: anesthetized guinea pigs, intravenous histamine; cited from earlier work
[8] = test system: bronchial and lung preparations; settings: in vitro; cited from earlier work
[9] = test system: OVA evoked asthma in sensitized guinea pigs; assay: Airway resistance in OVA asthma attack after oral administration in sensitized guinea pigs; type: in vivo
Method: Sensitized animals were divided into Saline (control), S-Bambuterol and R-bambuterol groups. R or S bambuterol were administered by both inhalation by oral ([…]). Airway resistance (Raw) and dynamic pulmonary compliance (Cdyn) were measured at resting or during astham challenge by OVA. Animal preparation and experimental methods were similar as described previously.

[10] = test system: OVA evoked asthma in sensitized guinea pigs; assay: Drug tolerance to R-bambuterol induced by pretreatment; type: in vivo
Method: Animal sensitization and experiment methods were similar as discribed above. Briefly, animals were divided into three groups. R-bambuterol (8 mg/kg) or S-bamburerol (8 mg/kg) or 0.9% NaCL (control) were given orally in equal volum to each group seperatedly once a day for 7 consecutive days in order to induce drug tolerances. The Protection effects of same dosage of R-bambuterol against asthma attack induced by OVA challenge were evaluated by the changes of Airway resistance (Raw) and dynamic pulmonary compliance (Cdyn).

[11] = inhale, at maximum effective dose (R-BM 0.252, RS-BM 0.505 mg/Kg)
[12] = oral, at maximum effective dose (R-BM 4.0, RS-BM 8.0 mg/Kg)
[13] = inhalation (R-BM 252 μg/kg, RS-BM 504 μg/kg), histamine 60 min after
[14] = inhalation (R-BM 252 μg/kg, RS-BM 504 μg/kg), histamine 240 min after
[15] = inhalation (R-BM 252 μg/kg, RS-BM 504 μg/kg), histamine 720 min after
[16] = oral (R-BM 4.0 mg/kg, RS-BM 8.0 mg/kg), histamine 60 min after
[17] = oral (R-BM 4.0 mg/kg, RS-BM 8.0 mg/kg), histamine 240 min after
[18] = oral (R-BM 4.0 mg/kg, RS-BM 8.0 mg/kg), histamine 720 min after
[19] = pretreated with the labelled substance 8 mg/kg orally once a day 7 days, then R-bambuterol, OVA challenge, n=8

CN(C)C(=O)Oc1cc(OC(=O)N(C)C)cc(C(O)CNC(C)(C)C)c1 (racemic) [bambuterol]
dosage required for maximum anti-asthmatic effects (complete protection against histamine) by inhalation ([1]; inhalation): 512 µg/kg | maximum effective dose required by inhalation ([1]; inhale): Inhale (0.505) mg/Kg | Animal collapsed (%) [1, 11]: 0% | Animal collapsed (number/group) [1, 11]: 0/8 | Latency ([1]; inhaled 63 μg/Kg): 42 ± 9 s | Latency ([1]; inhaled 126 μg/Kg): 85 ± 112 s | Latency ([1]; inhaled 252 μg/Kg): 209 ± 162 s | Latency ([1]; inhaled 504 μg/Kg): 360 ± 0 s | Oral:Inhale ratio of maximum effective dose ([1]; oral dose vs inhaled dose for maximum anti-asthmatic effect): 16 | maximum effective dose required by oral (none of the histamine challenged animals collapsed) ([2]; oral): 8 mg/kg | Latency ([2]; oral 1.0 mg/Kg): 151 ± 130 s | Latency ([2]; oral 2.0 mg/Kg): 227 ± 143 s | Latency ([2]; oral 4.0 mg/Kg): 299 ± 113 s | Latency ([2]; oral 8.0 mg/Kg): 360 ± 0 s | Animal collapsed (%) [2, 12]: 0% | Animal collapsed (number/group) [2, 12]: 0/8 | maximum effective dose required by oral (none of the histamine challenged animals collapsed) ([2]; oral, listed as RS-BM): Oral (8.0 ) mg/Kg | Latency [3, 13]: 360 ± 0 s | No. of collapsed [3, 13]: 0/8 | Latency [3, 14]: 360 ± 0 s | No. of collapsed [3, 14]: 0/8 | Latency [3, 15]: 287 ± 136 s | No. of collapsed [3, 15]: 2/8 | maximum anti-asthmatic effects by inhalation faster than by oral administration ([3]; inhalation vs oral): 4 h | Latency [3, 16]: 260 ± 131 s | No. of collapsed [3, 16]: 3/8 | Latency [3, 17]: 360 ± 0 s | No. of collapsed [3, 17]: 0/8 | Latency [3, 18]: 360 ± 0 s | No. of collapsed [3, 18]: 0/8 | protection against asthma attack by antigen (OVA) challenge [4]: significant anti-asthma effects | relief of asthmatic symptoms after inhalation [5]: immediately relieved within matter of tenths of seconds to a couple of minutes | duration of blood concentration of active parent drug ([6]; after an oral administration): up to 24 hours | concentration in lungs relative to plasma ([6]; after oral administration (Svensson 1991)): ~20 times | amount needed relative to terbutaline to reach the same concentration of terbutaline in blood ([6]; given orally, on molar basis): 5 times | tmax of terbutaline released from bambuterol later than tmax of terbutaline taken orally ([6]; oral (Olsson et al. 1984)): four | time of maximum concentration (tmax) ([6]; oral): around one | bronchospasmolytic effects when inhaled [7]: inactive and lack bronchospasmolytic effects | relaxation effects [8]: no relaxation effects

CN(C)C(=O)Oc1cc(OC(=O)N(C)C)cc([C@H](O)CNC(C)(C)C)c1 [S-bambuterol]
change of Raw and Cdyn at resting state after inhalation [4]: increasing airway resistance and reducing pulmonary dynamic compliance; also recorded: significant increase in airway resistance (Raw) and decrease in pulmonary compliance (Cdyn) | change of Raw and Cdyn at resting state after inhalation ([4]; listed as S-Bambuterol): significant increase in Raw and decrease in Cdyn | collapse induced by inhalation per se ([4]; inhalation, sensitized guinea pigs): induced a collapes of a guinea pig | protection against asthma attack by antigen (OVA) challenge [4]: no such protection at all; also recorded: inactive in protectoin against asthma attack | change of Raw and Cdyn during the asthma attack comparing to control ([4]; treated by inhalation): greater increase in airway resistance (Raw) and decrease in pulmonary compliance (Cdyn) | change of Raw and Cdyn in resting state ([9]; given orally): little changes in either Raw and Cdyn | change in Raw / asthmatic response during the asthmatic attack by OVA ([9]; oral): significantly enhance the asthmatic response to OVA challenge than control; also recorded: significant increases in Raw; also recorded: significantly worsen the asthmatic response | Changes in Airway resistance (Raw) at 4th min after OVA challenge ([9]; pretreated oral 4 m/kg, n=8): 2.40 ± 0.96 | Changes in Airway resistance (Raw) at 5th min after OVA challenge ([9]; pretreated oral 4 m/kg, n=8): 2.41 ± 0.98 | protection effects of R-bambuterol against asthmatic attack after pretreatment ([10]; group pretreated with the labelled substance): significantly reduced | Changes in Cdyn During asthma [10, 19]: −0.25 ± 0.10 | Changes in Raw During asthma [10, 19]: +0.36 ± 0.23
